Series [1] deals with TSPO A147T. The experiment in a line: Radioligand ([^3H]1) displacement binding on membranes of HEK cells stably transfected with A147T TSPO. On the set-up: species or system human. To be noted: for Ratio LAB/HAB: Ki at A147T TSPO / Ki at wild-type TSPO. On the procedure:
(§1) Binding affinities were measured as per our published protocol.21 Briefly, an Ultra‐Turrax homogeniser was used to prepare membranes from HEK cells stably transfected with wild‐type and A147T TSPO. […] Reactions were terminated by filtration through a 96‐well glass‐fibre filter plate (Millipore), and washed eight times with ice‐cold 50 mM Tris⋅HCl. […] Data were analysed using GraphPad Prism 6.0, and a four‐parameter nonlinear regression curve fit was used to calculate K i values. Data are expressed as the mean±SEM from at least three independent experiments.

Series [2] can be described thus: In vivo PET imaging of the brain in healthy rats. The following applies: healthy male Wistar rats, i.v. tracer injection, 60 min acquisition, n=2. Here is the method: The time–activity curve indicates distribution of radioactivity in the brain, albeit in a modest amount as the investigated animals were healthy.
Male Wistar rats (n=2; weight: 230 and 302 g) were obtained from Charles River Laboratories, UK. The rats were housed in Techniplast 2000P IVC cages on a layer of Aspen bedding in a room with constant temperature (21±2 °C) and fixed 12 h light–dark regime (lights on at 7:00 am). Food and water were available ad libitum. After arrival, the rats were allowed to acclimatise for at least seven days. This research was regulated under the Animals (Scientific Procedures) Act 1986 Amendment Regulations 2012 following ethical review by the University of Cambridge Animal Welfare and Ethical Review Body (AWERB).
Prior to scanning, the animals were anaesthetised using isofluorane at a concentration of 5 % in O2, and anaesthesia was maintained at 1.5–2.5 % isofluorane in O2. The femoral vein was cannulated for tracer injection. […]
Three‐dimensional regions of interest (ROIs) were drawn over the whole brain on an MRI template using PMOD software (version 3.2; PMOD technologies, Zurich, Switzerland). […] The results were expressed as dimensionless standardised uptake values (SUV=[(tissue activity)×(body weight)]/injected dose). SUVs were calculated assuming a specific gravity of 1 g mL^−1 for brain tissue.

The next series addresses rat heart TSPO. Set-up: method as in earlier work. The following applies: read-out: affinity, rat heart TSPO assay; cited from earlier work.
Another series has as its target T1, human TSPO wild‐type (Homo sapiens, UniProt P30536).
T1 construct: expressed in transfected cells; host or cells: HEK cells, stably transfected; membranes
The experiment in a line: Radioligand ([^3H]1) displacement binding on membranes of HEK cells stably transfected with wild-type TSPO. The following applies: HEK cell membranes, [^3H]1 10 nM, 4 °C, 90 min; mean±SEM, n=3; read-out: Ki (nM) at WT (Ala/Ala) HAB. On the procedure: Binding affinities were measured as per our published protocol.21 Briefly, an Ultra‐Turrax homogeniser was used to prepare membranes from HEK cells stably transfected with wild‐type and A147T TSPO. […] Reactions were terminated by filtration through a 96‐well glass‐fibre filter plate (Millipore), and washed eight times with ice‐cold 50 mM Tris⋅HCl. Microscint 0 was added to the dry filters, and radioactivity read in a Microbeta^2 2450 Microplate Counter (PerkinElmer). Data were analysed using GraphPad Prism 6.0, and a four‐parameter nonlinear regression curve fit was used to calculate K i values. Data are expressed as the mean±SEM from at least three independent experiments.

In series [3] the target is T2, TSPO A147T (Homo sapiens, UniProt P30536).
T2 construct: expressed in transfected cells; host or cells: HEK cells, stably transfected; membranes
T2 sequence (P30536 whole entry, stated change not applied): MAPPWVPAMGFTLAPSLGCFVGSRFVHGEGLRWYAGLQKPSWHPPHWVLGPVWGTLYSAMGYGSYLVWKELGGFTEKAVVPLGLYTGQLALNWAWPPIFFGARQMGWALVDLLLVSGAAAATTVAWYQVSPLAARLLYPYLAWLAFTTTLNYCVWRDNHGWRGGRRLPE
The experiment in a line: Radioligand ([^3H]1) displacement binding on membranes of HEK cells stably transfected with A147T TSPO. Here is the method: as §1

On the set-up of series [4]: method as in PMID 26697963, PMID 26551697, PMID 29114179. The following applies: cited from earlier work.
Series [5] has as its system TSPO. The following applies: cited from earlier work.
The subject of series [6] is TSPO A147T. On the set-up: method as in PMID 30108706. The following applies: cited from earlier work.
The subject of series [7] is TSPO. Set-up: method as in PMID 22244939. The following applies: rats; cited from earlier work.

This is an account of results in PMC6563049, “Radiosynthesis of (R,S)‐[^18F]GE387: A Potential PET Radiotracer for Imaging Translocator Protein 18 kDa (TSPO) with Low Binding Sensitivity to the Human Gene Polymorphism rs6971” (Chemmedchem, 2019).

Where two headings read alike, the source gives them in different places.

T1 sequence (P30536 whole entry T147A): as the sequence (P30536 whole entry, stated change not applied) above, with T147A counted along it

Turning to `CCN(Cc1ccccc1)C(=O)C1CCCc2c1c1c(OC)cccc1n2CCF` (racemic) [compound 6, N ‐Benzyl‐N‐ethyl‐9‐(2‐fluoroethyl)‐5‐methoxy‐2,3,4,9‐tetrahydro‐1H‐carbazole‐4‐carboxamide], the “sensitivity to the human gene polymorphism rs6971” value in the series with TSPO A147T [1] (conclusion from wild-type versus A147T binding) is “low sensitivity”.

As for `CCN(Cc1ccccc1)C(=O)C1CCCc2c1c1c(OC)cccc1n2CC[18F]` (racemic) [racemic [^18F]6], the “entry of radioactivity into the brain (PET)” value in series [2] is listed as “enters the brain”.

`CCN(Cc1ccccc1)C(=O)[C@@H]1CCCc2c1c1c(OC)cccc1n2CCF` [(R)-6, N ‐Benzyl‐N‐ethyl‐9‐(2‐fluoroethyl)‐5‐methoxy‐2,3,4,9‐tetrahydro‐1H‐carbazole‐4‐carboxamide]: the Ki on rat heart TSPO is 22 nM.

With `CCN(CC)C(=O)[C@H]1CCCc2c1c1c(OC)cccc1n2CCF` [(S)-5], the Ki on human TSPO wild‐type was determined as 11.3 ± 0.6 nM; at TSPO A147T [3] (HEK cell membranes, [^3H]1 10 nM, 4 °C, 90 min, mean±SEM, n=3, read-out: Ki (nM) at Ala147Thr LAB), 58.3 ± 6.4 nM. Further, the “Ratio LAB/HAB” value in the series with TSPO A147T [1] is 5.1.

Regarding `CCN(Cc1ccccc1)C(=O)[C@H]1CCCc2c1c1c(OC)cccc1n2CCF` [(S)-6, N ‐Benzyl‐N‐ethyl‐9‐(2‐fluoroethyl)‐5‐methoxy‐2,3,4,9‐tetrahydro‐1H‐carbazole‐4‐carboxamide], the Ki is 36.3 ± 6.9 nM on human TSPO wild‐type, 47.3 ± 7 nM at TSPO A147T [3] and 1.04 nM at rat heart TSPO. Further, the “Ratio LAB/HAB” value in the series on TSPO A147T [1] was 1.3.

As to `CC[C@@H](C)N(C)C(=O)c1cc2ccccc2c(-c2ccccc2Cl)n1` [[^11C]1, R‐1‐(2‐chlorophenyl)‐N‐methyl‐N‐(1‐methylpropyl)‐3‐isoquinoline carboxamide], the brain permeability result in series [4] was “low brain permeability”.

With `CC[C@@H](C)N(C)C(=O)c1cc2ccccc2c(-c2ccccc2Cl)n1` [[^11C]1] [R‐1‐(2‐chlorophenyl)‐N‐methyl‐N‐(1‐methylpropyl)‐3‐isoquinoline carboxamide], the “affinity for TSPO” value in the series on TSPO [5] (selective antagonist of TSPO) was 9.3 nM.

In the case of `CCN(CC)C(=O)C1CCCc2c1c1c(OC)cccc1n2CC[18F]` (stereo not shown) [[^18F]5], the “binding affinity ratio LABs/HABs” value in the series with TSPO A147T [6] is recorded as 5.1. The “affinity for TSPO (in words)” value in the series with TSPO [5] is recorded as “good affinity”. For the same molecule, in the series on TSPO [7], the brain uptake result is given as “good brain uptake” and the specific binding result is on record as “high specific binding”.
